Measured values from patent publication US11413354B2, “N-acetylgalactosamino dendron-clearing agent for dota-pretargeted radioimmunotherapy” (priority 2018, dated 2022).

Columns and labels:
[1] = test system: SW1222 xenografts (anti-GPA33 PRIT); conditions: with dextran-CA, cited from earlier work
[2] = test system: SW1222 xenografts (anti-GPA33 PRIT); assay: Optimized PRIT+[^177Lu]LuDOTA-Bn including dextran-CA (Cheal et al. 2016): dosimetry and therapy; assay type: in vivo, mice; conditions: with dextran-CA; bone marrow as dose-limiting organ
Text: See Cheal et al., Eur J Nucl Med Mol Imaging 43: 925 (2016). […] Cheal et al., Eur J Nucl Med Mol Imaging 43: 925 (2016).
Based on human normal-tissue radiation dose tolerance estimates derived from clinical observations (Marks, et al., Int J Radiat Oncol Biol Phys. 76:S10-9 (2010)) the maximum tolerated doses (MTDs) are 250 cGy for bone marrow, 1,500 cGy for lung, 3,000 cGy for liver, and 2,000 cGy for kidney. […] At this activity, the estimated absorbed dose delivered to tumor would be 18,292 cGy (183 Gy), with 250 cGy to blood (marrow) and 1,473 cGy to kidney.

[3] = test system: SW1222 tumor (same animal model); conditions: 24 h p.i.; 1.85-8.8 MBq, 10-50 pmol; cited from earlier work
[4] = test system: GPA33-expressing SW1222 xenografts; assay: Absorbed dose estimates for PRIT+[^177Lu]LuDOTA-Bn including dendron-CA CCA-16-DOTA-Y^3+; assay type: in vivo, nude mice; conditions: with dendron-CA; bone marrow as dose-limiting organ
Experimental: Absorbed dose estimates for PRIT+[^177Lu]LuDOTA-Bn including dendron-CA CCA-16-DOTA-Y^3+: In order to calculate absorbed doses for PRIT+[[…]]LuDOTA-Bn including dendron-CA (the clearing agent of the present technology), groups of nude mice bearing GPA33-expressing SW1222 xenografts (n=5/group) were injected i.v. with the BsAb huA33-C825 (250 μg; 1.19 nmol) 28 h prior and i.v. with dendron-clearing agent CCA-16-DOTA-Y^3+ (25 μg; 2.76 nmol) 4 h prior to administration of [^177Lu]LuDOTA-Bn (20 pmol, 3.7 MBq [100 μCi]). These mice were sacrificed at 1, 4, 24, or 48 h p.i. of [^177Lu]LuDOTA-Bn for biodistribution assay. For each tissue, the non-decay-corrected time-activity concentration data were fitted using Excel to a 1-component, 2-component, or more complex exponential function as appropriate, and analytically integrated to yield the cumulated activity concentration per unit administered activity (MBq-h/g per MBq). The ^177Lu equilibrium dose constant for non-penetrating radiations (8.49 g-cGy/MBq-h) was used to estimate the tumor-to-tumor and select organ-to-organ self-absorbed doses, assuming complete local absorption of the ^177Lu beta rays only, and ignoring the gamma ray and non-self dose contributions.

^177Lu-aminobenzylDOTA [[^177Lu]LuDOTA-Bn]
CR frequency ([1]; 111.0 MBq delivered in a fractionated dose strategy): 100%
survival beyond 140 days ([1]; 111.0 MBq fractionated): two of nine mice
treatment-related toxicity ([1]; effective treatment): no major treatment-related toxicities observed
maximum tolerated pretargeted activity [2]: 278 MBq
mean tumor uptake [3]: ~8 % ID/g
maximum tolerated pretargeted activity [4]: 21 MBq
